# Measured values taken from PMC9025560, “A Comparison of Evans Blue and 4-(p-Iodophenyl)butyryl Albumin Binding Moieties on an Integrin αvβ6 Binding Peptide” (Pharmaceutics, 2022).
# Values joined by “and” are separate entries in the source; they are usually repeats but may differ in a detail not shown here. Identical values can stand only once. Like-named read-outs stand apart in the source and are kept apart here.
# How the values were obtained:
# [1] = test system: U87MG glioblastoma tumor model; conditions: cited from earlier work
# somatostatin receptor = conditions: cited from earlier work; for Tumor accumulation: 24 h
# human serum protein = test system: human serum protein; parameters: method as in PMID 34783573; conditions: either serum albumin (human); cited from earlier work
# mouse serum protein = test system: mouse serum protein; parameters: method as in PMID 34783573; conditions: either serum albumin (mouse); cited from earlier work
# BxPC-3 xenograft tumors [2] = test system: BxPC-3 xenograft tumors; parameters: method as in PMID 34783573; conditions: cited from earlier work
# integrin αvβ6 [3] = biological target: T1, integrin αvβ6 (Homo sapiens, UniProt P06756+P18564); parameters: method as in PMID 34783573; conditions: competitive ELISA against biotinylated LAP; read-out: IC50, integrin αvβ6 affinity; cited from earlier work
# T1 construct: purchased R&D Systems
# [4] = test system: prostate specific membrane antigen (PSMA); conditions: cited from earlier work
# [5] = parameters: method as in PMID 32383076, PMID 24267053; conditions: cited from earlier work
# integrin αvβ6 [6] = biological target: T1, integrin αvβ6; assay: Integrin αvβ6 affinity competitive binding ELISA against biotinylated LAP
# Procedure: Affinity for the integrin αvβ6 was determined by competitive binding ELISA of [^NatCu]1 and [^NatCu]2 against biotinylated-LAP (G&P Biosciences, Santa Clara, CA, USA) as previously described to determine the half-maximum inhibitory concentration (IC50). Briefly, in a 96 well Nunc Immuno maxisorp plate, capturing anti-αv antibody (P2W7, 5 μg/mL, Abcam, MA, USA) was plated (50 μL/well) at 37 °C for 1 h, washed with PBS (3×), and blocked overnight with blocking buffer (300 μL/well, 0.5% non-fat dry milk powder (w/v), 1% Tween 20, in PBS). It was then washed with wash buffer that consisted of 2 mmol/L of Tris buffer (pH = 7.6), 150 mmol/L sodium chloride, 1 mmol/L manganese chloride, and 0.1% Tween 20 (v/v) in deionized water (3×). […] The ExtrAvidin HRP was detected with TMB One solution (50 μL/well; Promega Corp., Madison, WI, USA) for 10–15 min at room temperature. The reaction was stopped by adding 1N sulfuric acid (H2SO4, 50 μL/well; EMD, MA, USA) and the absorbance was measured in a Multiscan Ascent plate reader (Thermo Fisher, Waltham, MA, USA) at 450 nm. Half-maximal inhibitory concentration (IC50) of peptides was determined by fitting to sigmoidal dose-response model in GraphPad Prism 8.0 (GraphPad, CA, USA). […]
# [7] = parameters: method as in PMID 23236020, PMID 28094532; conditions: cited from earlier work
# [8] = parameters: method as in PMID 26771036, PMID 26251416; conditions: cited from earlier work
# [9] = parameters: method as in PMID 29653971; conditions: clinical trials; cited from earlier work
# BxPC-3 xenograft tumors [10] = assay: Biodistribution in mice bearing BxPC-3 xenograft tumors; type: in vivo; conditions: 4 h p.i.; for Blood uptake / Bone uptake / Brain uptake / BxPC-3 Tumor uptake / Fecal Matter radioactivity / Gall Bladder uptake / Heart uptake / Kidneys uptake / Lg. Intestines uptake / Liver uptake / Lung uptake / Muscle uptake / Pancreas uptake / Skin uptake / Sm. Intestines uptake / Spleen uptake / Stomach uptake / Urine radioactivity: i.v.
# Procedure: All animal procedures conformed to the Animal Welfare Act and were approved by the University of California, Davis Institutional Animal Care and Use Committee. Female athymic nu/nu-nude mice (6–8 weeks old) were purchased from Charles River Laboratories (Wilmington, MA, USA) and provided food and water on an ad libitum basis. BxPC-3 xenografts were implanted according to previous methods. Briefly, BxPC-3 cells were evaluated by flow cytometry to confirm integrin αvβ6 expression levels, injected subcutaneously into the left flank [5 million in 100 μL of a 1:1 mixture of serum-free RPMI and GFR Matrigel (Corning, New York, NY, USA)], and allowed to grow for approximately 3 weeks until tumors reached a diameter of 0.5–1 cm.
# For biodistribution studies the [^64Cu]1–4 (3.7–5.55 MBq) in PBS (100 μL, pH 7.2) was injected intravenously (i.v.) via catheter into the tail vein. Following a conscious uptake period, the mice were anesthetized (5% isoflurane), euthanized, and dissected ([^64Cu]1 and [^64Cu]2, n = 3/radiolabeled peptide/time point; 4, 24, and 48 h p.i.; the 72 h time point was obtained from the imaging animals after the 72 h PET/CT scans; compounds [^64Cu]3 and [^64Cu]4, n = 2/radiolabeled compound at 4 h p.i.). Tissues were rapidly collected, weighed, and radioactivity measured with a γ-counter. Decay-corrected radioactivity concentrations are expressed as the percentage of injected dose per gram of tissue (% ID/g). Data are reported as mean ± standard deviation (SD) (Figure S20, S21 and S25).
# T1 sequence (P06756 31-992 limits assumed): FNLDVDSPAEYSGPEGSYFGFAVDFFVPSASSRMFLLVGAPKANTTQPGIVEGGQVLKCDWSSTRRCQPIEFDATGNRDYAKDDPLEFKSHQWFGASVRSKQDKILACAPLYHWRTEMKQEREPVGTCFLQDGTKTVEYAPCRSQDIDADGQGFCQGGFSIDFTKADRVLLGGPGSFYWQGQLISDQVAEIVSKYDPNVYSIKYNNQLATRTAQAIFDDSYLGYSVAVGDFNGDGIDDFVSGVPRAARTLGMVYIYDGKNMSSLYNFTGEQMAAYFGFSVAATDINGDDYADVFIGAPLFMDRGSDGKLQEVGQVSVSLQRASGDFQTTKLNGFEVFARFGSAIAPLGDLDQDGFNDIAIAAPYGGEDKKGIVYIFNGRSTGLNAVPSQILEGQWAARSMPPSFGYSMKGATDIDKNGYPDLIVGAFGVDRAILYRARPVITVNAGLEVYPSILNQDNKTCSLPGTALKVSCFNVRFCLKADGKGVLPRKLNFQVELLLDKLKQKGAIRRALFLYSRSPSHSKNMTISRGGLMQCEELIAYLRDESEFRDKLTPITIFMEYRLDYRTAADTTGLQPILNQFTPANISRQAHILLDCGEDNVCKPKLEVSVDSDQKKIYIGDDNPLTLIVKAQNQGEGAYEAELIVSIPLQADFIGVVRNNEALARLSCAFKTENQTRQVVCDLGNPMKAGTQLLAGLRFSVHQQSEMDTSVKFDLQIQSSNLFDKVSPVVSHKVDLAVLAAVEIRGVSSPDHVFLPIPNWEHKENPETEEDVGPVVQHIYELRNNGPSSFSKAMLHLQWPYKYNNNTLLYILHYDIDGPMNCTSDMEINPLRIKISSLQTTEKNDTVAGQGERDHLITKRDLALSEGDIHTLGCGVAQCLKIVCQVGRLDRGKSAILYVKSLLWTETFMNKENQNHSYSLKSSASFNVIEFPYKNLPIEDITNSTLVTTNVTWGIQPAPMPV
# T1 sequence (P18564 22-707 limits assumed): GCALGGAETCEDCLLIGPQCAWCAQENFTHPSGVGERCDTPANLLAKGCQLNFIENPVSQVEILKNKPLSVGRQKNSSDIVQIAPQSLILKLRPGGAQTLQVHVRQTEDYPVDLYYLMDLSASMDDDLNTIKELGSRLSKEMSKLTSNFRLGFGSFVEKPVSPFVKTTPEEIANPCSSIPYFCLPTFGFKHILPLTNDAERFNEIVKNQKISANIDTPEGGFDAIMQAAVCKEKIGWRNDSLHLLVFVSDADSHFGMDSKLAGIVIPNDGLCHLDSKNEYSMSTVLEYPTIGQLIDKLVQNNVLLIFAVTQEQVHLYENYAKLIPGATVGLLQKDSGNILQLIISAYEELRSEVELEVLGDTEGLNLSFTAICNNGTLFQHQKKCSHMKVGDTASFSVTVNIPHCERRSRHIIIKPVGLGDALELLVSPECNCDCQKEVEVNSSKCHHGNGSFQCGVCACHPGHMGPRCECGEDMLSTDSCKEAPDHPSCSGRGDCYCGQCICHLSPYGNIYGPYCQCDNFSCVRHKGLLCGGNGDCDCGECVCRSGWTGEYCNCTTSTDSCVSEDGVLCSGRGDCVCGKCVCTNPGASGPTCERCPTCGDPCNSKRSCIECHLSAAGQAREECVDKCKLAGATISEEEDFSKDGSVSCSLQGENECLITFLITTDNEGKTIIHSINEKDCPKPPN
compound,measurement,setting,value
[^64Cu]Cu NOTA-EB-cRGDfK,Fold improvement in tumor accumulation vs. [64Cu]Cu NOTA-cRGDfK,[1],> 16 fold
same,Tumor accumulation,[1],16.6 % ID/g
[^177Lu]Lu DOTA-TATE,Tumor accumulation,somatostatin receptor,9.3 % ID/g
[^64Cu]Cu DOTA-αvβ6-BP,Binding to serum albumin,human serum protein,< 29%
same,Binding to serum albumin,mouse serum protein,< 29%
same,BxPC-3 Tumor uptake,"BxPC-3 xenograft tumors [2]; 4 h, same BxPC-3 tumor model",1.61 ± 0.70 % ID/g
same,Kidney accumulation,BxPC-3 xenograft tumors [2]; 4 h,20.37 ± 1.67 % ID/g
same,Kidney accumulation,BxPC-3 xenograft tumors [2]; 48 h,6.81 ± 1.36 % ID/g
DOTA-αvβ6-BP,IC50,integrin αvβ6 [3],28 ± 3 nM
O=C(O)CC[C@H](NC(=O)N[C@@H](CCCCNC(=O)[C@H](Cc1ccc2ccccc2c1)NC(=O)[C@H]1CC[C@H](CNC(=O)CN2CCN(CC(=O)O)CCN(CC(=O)O)CCN(CC(=O)O)CC2)CC1)C(=O)O)C(=O)O [non-ABM PSMA-617],Tumor accumulation,[4]; 24 h,38 % ID/g
[^18F]AlF NOTA-IP-ABM-αvβ6-BP,Fold lower kidney retention than [18F]AlF NOTA-A20FMDV2-peptide,[5],> 3.5 fold
[NatCu]Cu DOTA-EB-αvβ6-BP [[^NatCu]1],IC50,integrin αvβ6 [6],14 ± 2 nM
[NatCu]Cu DOTA-IP-αvβ6-BP [[^NatCu]2],IC50,integrin αvβ6 [6],19 ± 5 nM
Nc1nc2ncc(CNc3ccc(C(=O)N[C@@H](CCC(=O)O)C(=O)O)cc3)nc2c(=O)[nH]1 [folic acid],Kidney accumulation,[7]; 4 h,70 % ID/g
same,Tumor accumulation,[7]; 24 h p.i.,7 % ID/g
[^64Cu]Cu NOTA-cRGDfK,Tumor accumulation,[1],< 1.1 % ID/g
Cc1cc(-c2ccc(NC(=O)[C@H](CCCCNC(=O)CCN3C(=O)CC(SCC(=O)NCC4CCC(C(=O)N[C@H](Cc5ccc6ccccc6c5)C(=O)NCCCC[C@H](NC(=O)N[C@@H](CCC(=O)O)C(=O)O)C(=O)O)CC4)C3=O)NC(=O)CN3CCN(CC(=O)O)CCN(CC(=O)O)CCN(CC(=O)O)CC3)c(C)c2)ccc1N=Nc1ccc2c(S(=O)(=O)O)cc(S(=O)(=O)O)c(N)c2c1O (stereo partly shown) [EB-ABM PSMA-617],Kidney accumulation,[4]; 4 h,> 20 % ID/g
same,Tumor accumulation,[4]; from 4 h to 48 h,65.6–77.3 % ID/g
[^64Cu]Cu NOTA-EB,Blood accumulation,[8]; 4 h,~ 15 % ID/g
same,Blood accumulation,[8]; 1 d,~ 10 % ID/g
[^177Lu]Lu DOTA-EB-TATE,Kidney accumulation,somatostatin receptor; 4 h,~ 30 % ID/g
same,Tumor accumulation,somatostatin receptor,78.8 % ID/g
same,Kidney accumulation,somatostatin receptor; 72 h,~ 15 % ID/g
same,Fold increase in tumor dose delivery,[9],7.9 fold
"Cc1cc(-c2ccc(NC(=O)CCC(=O)NCCCC[C@H](NC(=O)CN3CCN(CC(=O)O)CCN(CC(=O)O)CCN(CC(=O)O)CC3)C(N)=O)c(C)c2)ccc1N=Nc1ccc2c(S(=O)(=O)O)cc(S(=O)(=O)O)c(N)c2c1O [[^64Cu]3, [^64Cu]Cu DOTA-EB, metal not drawn]",Tumor-Kidney ratio,BxPC-3 xenograft tumors [10],1.34 ±0.15
same,Tumor-Lg Intestines ratio,BxPC-3 xenograft tumors [10],1.49 ±0.68
same,Tumor-Liver ratio,BxPC-3 xenograft tumors [10],1.2–1.3
same,Tumor-Sm Intestines ratio,BxPC-3 xenograft tumors [10],2.05 ±0.43
same,Tumor-Stomach ratio,BxPC-3 xenograft tumors [10],2.52 ±0.58
same,Blood uptake,BxPC-3 xenograft tumors [10],38.9 ± 10.4 % ID/g
same,Bone uptake,BxPC-3 xenograft tumors [10],4.81 ± 0.79 % ID/g
same,Brain uptake,BxPC-3 xenograft tumors [10],0.97 ± 0.19 % ID/g
same,BxPC-3 Tumor uptake,BxPC-3 xenograft tumors [10],24.82 ± 0.90 % ID/g
same,Fecal Matter radioactivity,BxPC-3 xenograft tumors [10],33.79 ± 0.90 % ID/g
same,Gall Bladder uptake,BxPC-3 xenograft tumors [10],28.57 ± 10.67 % ID/g
same,Heart uptake,BxPC-3 xenograft tumors [10],12.05 ± 2.69 % ID/g
same,Kidneys uptake,BxPC-3 xenograft tumors [10],18.6 ± 1.4 % ID/g
same,Lg. Intestines uptake,BxPC-3 xenograft tumors [10],12.75 ± 0.65 % ID/g
same,Liver uptake,BxPC-3 xenograft tumors [10],22.01 ± 4.74 % ID/g
same,Lung uptake,BxPC-3 xenograft tumors [10],19.40 ± 1.33 % ID/g
same,Muscle uptake,BxPC-3 xenograft tumors [10],4.64 ± 1.40 % ID/g
same,Pancreas uptake,BxPC-3 xenograft tumors [10],6.40 ± 1.03 % ID/g
same,Skin uptake,BxPC-3 xenograft tumors [10],14.77 ± 1.82 % ID/g
same,Sm. Intestines uptake,BxPC-3 xenograft tumors [10],12.45 ± 3.06 % ID/g
same,Spleen uptake,BxPC-3 xenograft tumors [10],8.10 ± 1.19 % ID/g
same,Stomach uptake,BxPC-3 xenograft tumors [10],10.16 ± 2.71 % ID/g
same,Urine radioactivity,BxPC-3 xenograft tumors [10],63.25 ± 27.58 % ID/g
same,Blood uptake,BxPC-3 xenograft tumors [10]; listed as [64Cu]3,38.88 ± 10.37 % ID/g
same,Kidneys uptake,BxPC-3 xenograft tumors [10]; listed as [64Cu]3,18.59 ± 1.41 % ID/g
same,Tumor-Blood ratio,BxPC-3 xenograft tumors [10]; listed as [64Cu]3,0.66 ±0.15
same,Tumor-Liver ratio,BxPC-3 xenograft tumors [10]; listed as [64Cu]3,1.15 ±0.21
same,Tumor-Muscle ratio,BxPC-3 xenograft tumors [10]; listed as [64Cu]3,5.58 ±1.49
"NC(=O)[C@H](CCCCNC(=O)[C@H](CC(=O)O)NC(=O)CCCNC(=O)CCCc1ccc(I)cc1)NC(=O)CN1CCN(CC(=O)O)CCN(CC(=O)O)CCN(CC(=O)O)CC1 [[^64Cu]4, [^64Cu]Cu DOTA-IP, metal not drawn]",Tumor-Kidney ratio,BxPC-3 xenograft tumors [10],1.83 ±0.19
same,Tumor-Lg Intestines ratio,BxPC-3 xenograft tumors [10],2.83 ±0.36
same,Tumor-Liver ratio,BxPC-3 xenograft tumors [10],1.2–1.3
same,Tumor-Sm Intestines ratio,BxPC-3 xenograft tumors [10],2.31 ±0.27
same,Tumor-Stomach ratio,BxPC-3 xenograft tumors [10],3.31 ±0.37
same,Blood uptake,BxPC-3 xenograft tumors [10],9.5 ± 1.3 % ID/g
same,Bone uptake,BxPC-3 xenograft tumors [10],1.19 ± 0.06 % ID/g
same,Brain uptake,BxPC-3 xenograft tumors [10],0.36 ± 0.05 % ID/g
same,BxPC-3 Tumor uptake,BxPC-3 xenograft tumors [10],7.99 ± 1.93 % ID/g
same,Fecal Matter radioactivity,BxPC-3 xenograft tumors [10],2.54 ± 1.41 % ID/g
same,Gall Bladder uptake,BxPC-3 xenograft tumors [10],10.23 ± 3.01 % ID/g
same,Heart uptake,BxPC-3 xenograft tumors [10],3.07 ± 0.01 % ID/g
same,Kidneys uptake,BxPC-3 xenograft tumors [10],4.34 ± 0.61 % ID/g and 4.3 % ID/g
same,Lg. Intestines uptake,BxPC-3 xenograft tumors [10],2.90 ± 1.05 % ID/g
same,Liver uptake,BxPC-3 xenograft tumors [10],6.21 ± 1.51 % ID/g
same,Lung uptake,BxPC-3 xenograft tumors [10],5.01 ± 0.69 % ID/g
same,Muscle uptake,BxPC-3 xenograft tumors [10],1.28 ± 0.03 % ID/g
same,Pancreas uptake,BxPC-3 xenograft tumors [10],1.50 ± 0.09 % ID/g
same,Skin uptake,BxPC-3 xenograft tumors [10],4.38 ± 0.77 % ID/g
same,Sm. Intestines uptake,BxPC-3 xenograft tumors [10],3.53 ± 1.24 % ID/g
same,Spleen uptake,BxPC-3 xenograft tumors [10],2.10 ±0.24 % ID/g
same,Stomach uptake,BxPC-3 xenograft tumors [10],2.39 ± 0.31 % ID/g
same,Urine radioactivity,BxPC-3 xenograft tumors [10],72.25 ± 35.13 % ID/g
same,Blood uptake,BxPC-3 xenograft tumors [10]; listed as [64Cu]4,9.51 ± 1.32 % ID/g
same,Tumor-Blood ratio,BxPC-3 xenograft tumors [10]; listed as [64Cu]4,0.83 ±0.09
same,Tumor-Liver ratio,BxPC-3 xenograft tumors [10]; listed as [64Cu]4,1.29 ± 0.001
same,Tumor-Muscle ratio,BxPC-3 xenograft tumors [10]; listed as [64Cu]4,6.25 ±1.37
